From patent US12403167B2, “Phenylethanoid glycoside extract from Acanthus ilicifolius L., preparation method thereof and use as anti-liver injury medicament” (OCEAN UNIVERSITY OF CHINA, priority 2019, dated 2025)

Tests used:
[1] = test system: CCl4-induced acute liver injury mice; assay: SOD and MDA in liver tissue homogenate of CCl4-induced liver injury mice; assay type: in vivo; details: 150 mg/kg once/d for 3 days before CCl4; liver 8 h after CCl4; n = 8, x ± s
Procedure: Forty eight C57 mice (20-22 g) of both genders were supplied by the Experimental Animal Center of Hubei Province, China (NO. 42000600033017). The above 48 mice were randomly divided into 6 groups (8 mice each group), and the phenylethanoid glycoside extract of the present disclosure (the phenylethanoid glycoside group, APhGs) were intraperitoneally injected with the doses of 300 mg/kg (high dose group), 150 mg/kg (medium dose group), and 75 mg/kg (low dose group). The positive group was given silybin (150 mg/kg), and the normal group, as well as model group was given normal saline. All groups were treated as above once/d for 3 consecutive days. Two hours after the last administration, the normal group was intraperitoneally injected with 15 μL of olive oil/mouse, and the other groups were intraperitoneally injected with 15 μL of 50% CCl4 (diluted with olive oil 1:1)/mouse. Eight hours later, all the mice were anesthetized. […]
The detection of SOD and MDA of liver homogenate samples from each group mice were conducted according to the instructions of ELISA kit for SOD and MDA. The OD values of liver SOD at 550 nm and MDA at 532 nm were obtained by a microplate reader, respectively. The SOD and MDA enzyme activities were calculated based on the OD values. […]

[2] = test system: CCl4-induced acute liver injury mice; assay: Serum ALT, AST, SOD and MDA in CCl4-induced liver injury mice; assay type: in vivo; details: 150 mg/kg once/d for 3 days before CCl4; blood 8 h after CCl4; n = 8, x ± s
Procedure: Forty eight C57 mice (20-22 g) of both genders were supplied by the Experimental Animal Center of Hubei Province, China (NO. 42000600033017). The above 48 mice were randomly divided into 6 groups (8 mice each group), and the phenylethanoid glycoside extract of the present disclosure (the phenylethanoid glycoside group, APhGs) were intraperitoneally injected with the doses of 300 mg/kg (high dose group), 150 mg/kg (medium dose group), and 75 mg/kg (low dose group). The positive group was given silybin (150 mg/kg), and the normal group, as well as model group was given normal saline. All groups were treated as above once/d for 3 consecutive days. Two hours after the last administration, the normal group was intraperitoneally injected with 15 μL of olive oil/mouse, and the other groups were intraperitoneally injected with 15 μL of 50% CCl4 (diluted with olive oil 1:1)/mouse. Eight hours later, all the mice were anesthetized. Then blood was collected by cardiac puncture, and liver tissue was collected for testing biochemical indexes and making pathological sections.
The detection of alanine aminotransferase (ALT) and aspartate aminotransferase (AST) of serum samples from each group mice were conducted according to the instructions of ELISA kit for ALT and AST. The absorbances (OD values) of serum ALT and AST at 450 nm were obtained by a microplate reader. The ALT and AST enzyme activities were calculated based on the OD values.
The detection of superoxide dismutase (SOD) and malondialdehyde (MDA) of serum samples from each group of mice were conducted according to the instructions of ELISA kit for SOD and MDA. The OD values of serum SOD at 550 nm and MDA at 532 nm were obtained by a microplate reader, respectively. The SOD and MDA enzyme activities were calculated based on the OD values.
Immunohistochemical analysis software: Image-pro plus 6.0 (Media Cybernetics, Inc., Rockville, MD, USA); experimental data statistical software: GraphPad Prism 7. The results were represented by mean values ±standard deviation (x±s). The difference P<0.05 meant statistically significant.

[3] = test system: L-02 hepatocytes; assay: CCl4-induced L-02 hepatocyte damage, CCK-8 cell viability; assay type: cell-based; details: 20 μg/mL, 15 mM CCl4, 24 h, CCl4 model group 24.22±0.33%
Procedure: L-02 hepatocytes were provided by the China Center for Type Culture Collection (CCTCC). The L-02 hepatocytes were cultured in a medium containing 1640 complete culture medium and DMEM complete medium with 5% CO2 at a constant temperature (37° C.). The cells were harvested in the exponential growth phase. A suspension of 1×10^6 cells/mL was prepared, and then 100 μL of this suspension was added to each well of a 96-well plate with tested medium. The groups were divided into: normal group, negative control group, CCl4 model group, positive group (silybin), and high-, medium-, and low-dosage APhGs groups. After incubation for 24 h, the cells in the experimental group and the positive group were treated with different concentrations of APhGs and silybin. Both the CCl4 model group and the negative control group were added with the same amount of DMSO. Each treatment was repeated five times. […]
Determination of cell viability: 10 μL of CCK8 was added to each well to incubate at 37° C. for 2 h. The culture plates were measured with a microplate reader to obtain the absorbances at 450 nm. The cell viability values were calculated by the following formula: Cell viability (%)=(ODsample−ODblank)×100/(ODcontrol−ODblank)
ODsample was the absorbance of the experimental group, ODcontrol was the absorbance of the negative control group, ODblank was the absorbance of the blank control.

COc1cc(C2Oc3cc([C@H]4Oc5cc(O)cc(O)c5C(=O)[C@@H]4O)ccc3OC2CO)ccc1O (stereo partly shown) [Positive group, silybin]
liver tissue MDA [1]: 0.56 ± 0.08 nmol/mg prot
liver tissue SOD [1]: 610.91 U/mg prot
serum ALT [2]: 736.27 U/L
serum AST [2]: 776.68 U/L
serum MDA [2]: 8.32 µM
serum SOD [2]: 743.47 U/mL
cell survival rate [3]: 35.92±2.15%
